Here are results for three molecules from patent US10596166B2, “Combination composition comprising huperzine” (priority 2015, dated 2020).

The test system of assay [1] is primary cortical neurons injured by Aβ. Briefly: Aβ-peptide toxicity on primary cortical neurons (neuron survival, neurite network). It counts as cell-based, rat. The note with it: Aβ 20 μM, 24 h. How it is done: The present study used an in vitro model of Alzheimer's disease established by Callizot et al. [2013, already cited], using Aβ-peptide solution containing Aβ-oligomers and permitting to reproduce essential neuropathological features of Alzheimer's disease.
The Aβ1-42-preparation was obtained following the procedure described by Callizot et al. [2013, already cited]. Briefly, Aβ1-42 peptide was dissolved in the defined culture medium mentioned above, devoid of serum, at an initial concentration of 40 μmol/liter. This solution was gently agitated for 3 days at 37° C. in the dark and immediately used after being diluted in culture medium to the concentrations used.
On day 11 of culture, HA, CA, FA and mixtures thereof were solved and diluted in culture medium and then pre-incubated with cortical neurons 1 hour before the Aβ1-42-peptide application. Aβ1-42-preparation was then added to a final concentration of 20 μM diluted in control medium.
After 24 hours of Aβ-intoxication, the cultures were fixed and immunolabeled and the neuron survival and the neurite network length were assessed as described in the above example.

In assay [2] the test system is nerve/muscle co-culture injured by glutamate. Briefly: glutamate toxicity on nerve/muscle co-culture (NMJ area, neurite network). It counts as cell-based, human muscle, rat spinal cord explants. The conditions noted are these: glutamate 60 μM, 20 min. The protocol:
Human muscle (promocell, Batch: 3061107) was prepared according to a previously described method from portions of a biopsy from a healthy subject (Braun et al., (1996) J. Neurol Sci. 136: 17-23). The human muscle cell line was established from dissociated cells (21 000 cells per wells), plated in gelatin-coated 0.1% (Sigma, Batch: 051M0012V) in water on 48 wells plate (greiner, Batch: E13111ME) and grows in a proliferation medium consisting of mix of 62% of MEM medium (PAN, Batch: 2761113) and 25% of M199 medium (PAN, Batch: 6720314) supplemented with glutamine 2 mM (PAN, Batch: 8150713), human insulin 10 μg/ml (PAN, Batch: 1481013), Human recombinant Epidermal growth factor 10 ng/ml (EGF, GIBCO, Batch: 1291552A), human recombinant Fibroblast growth factor basic 2 ng/ml (bFGF, PAN, Batch: H080113), foetal calf serum 10% (FCS, GIBCO, Batch: 41Q7218K) and 2% of Penicillin 10.000 U/ml and Streptomycin 10.000 μg/ml (PS, PAN, Batch: 1451013). The medium was changed every 2 days. Five days after the start of culture, immediately after satellite cell fusion, whole transverse slices of 13-day-old rat Wistar embryos (Janvier, France) spinal cords with 4 dorsal root ganglia (DRG) attached are placed on the muscle monolayer (one explant per well in the central area). DRG are necessary to achieve a good ratio of innervation. Innervated cultures were maintained in a mixed (67%/25%) medium composed of MEM and medium 199, supplemented with 5% FCS, insulin 5 μg/ml, glutamine 2 mM and 2% PS. After 24 h of co-culture, neurites were observed growing out of the spinal cord explants. These neurites made contacts with myotubes and induced the first contractions after ˜8 days. Quickly thereafter, innervated muscle fibres located in the proximity to the spinal cord explants, were virtually continuously contracting. Innervated fibres were morphologically and spatially distinct from the non-innervated ones and could easily be distinguished from them.
On day 27, co-cultures were pre-incubated 1 hour before glutamate application with test compounds (different concentrations) tested alone or in a mixture of the 3 compounds.
One hour after HA, CA or FA Compounds and mixture (HA/CA/FA) incubation, glutamate was added to a final concentration of 60 μM diluted in control medium still in presence of 3 compounds or mix of compounds for 20 min.
After 20 min injuries, co-cultures were washed and individual test compounds and mixture were added for an additional 48 h.
After 48 h, the cocultures were prepared for end points evaluation (see below).
After 48H of intoxication, cells were incubated with 500 nM α-bungarotoxin coupled with Alexa 488 (Molecular probes, Batch: 1434893) during 15 min in culture innervations medium at 37° C. to detect NMJ. After 2 washing in PBS (Pan Biotech, Batch: 7560414), cells were fixed by a solution of 4% of paraformaldehyde (Sigma Aldrich, Batch: SLBF7274V) in PBS, pH=7.3 for 20 min at room temperature.
The cells were washed 2 times in PBS and then permeabilized and non-specific sites were blocked with a solution of PBS containing 0.1% of saponin (Sigma-Aldrich, Batch: BCBJ8417V) and 1%0 FCS (Gibco, Batch: 41F0423K) for 15 min at room temperature, co-cultures were incubated with a mouse monoclonal anti-neurofilament 200 KD antibody (NF, Sigma Aldrich, Batch: 053M4756) at the dilution of 1/400 in PBS containing 1% FCS, 0.1% saponin, for 2 h at room temperature. Antibody against NF stained the axon of motor neuron. […] Nuclei of neurons were labeled by Hoechst solution, a nuclear fluorescent marker at […] in the same solution (Hoechst solution, SIGMA, batch: 011M4004V).
The NMJ mean size (area) of NMJs and the total length of neurite were assessed under the experimental conditions described above (see Combes et al., 2015). For each condition, 20 pictures per well were taken in the center area using ImageXpress (Molecular device) with 10× magnification. All images were taken under the same conditions. […]

For the molecule `O=C(O)/C=C/c1ccc(O)c(O)c1` [CA, caffeic acid], the neuron survival result in assay [1] (500 pM and below) is given as “no effect”; in assay [1] (from 5 nM up to 5 μM), “significantly protect”. In assay [1] (even at lower concentrations), the neurite network result is “Protective effect”. The “neurite network (area of innervation)” value is reported as “slight protection” in assay [2] (CA added 1 h before glutamate) and “significance was observed” in assay [2] (CA highest dose (5 nM)). Besides, the “NMJ area (mean size)” value in assay [2] (CA low concentrations) is on record as “unable to protect”; in assay [2] (only at the highest dose (5 nM)), “able to protect”.

As to `COc1cc(/C=C/C(=O)O)ccc1O` [FA, ferulic acid], in assay [1] (10 and 100 μM), the neurite network result is “significant effect”. The neuron survival entry in assay [1] (whatever the concentration tested) was “not able to protect”. Moreover, the “NMJ area (mean size)” value in assay [2] (FA lowest and highest concentrations) is “inactive”; in assay [2] (FA only at 100 nM), “able to protect”. For the same molecule, in assay [2] (highest dose tested (10 μM)), the “neurite network (area of innervation)” value is on record as “moderate effect”.

`C/C=C1\[C@H]2C=C(C)C[C@]1(N)c1ccc(=O)[nH]c1C2` [HA, huperzine A, reference compound]: the neuron survival result in assay [1] (HA, all concentrations) is “not able to significantly protect”. Also, the “NMJ area (mean size)” value is “significance was observed” in assay [2] (HA 100 nM) and “slight protective effect” in assay [2] (HA, all concentrations tested). The “neurite network (area of innervation)” value in assay [2] (HA 100 nM, without reaching the significance) is listed as “slight neuroprotection”; in assay [2] (HA, all concentrations tested), “no neuronal protective effect”.
